This is an account of results in patent EP1965829B1, “ALTERNATIVE OXIDASE AND USES THEREOF” (Tampereen yliopisto, priority 2005, dated 2007).

Assay [1] has as its system Flp-In™ T-REx™-293 cells. Nature of the assay: Succinate oxidation by digitonin-permeabilized cells, Clark oxygen electrode. It is filed as cell-based, human. Conditions: AOX-induced cells.
A further assay deals with Drosophila mitochondria. It is filed as biochemical, Drosophila melanogaster.
The subject of assay [2] is Flp-In™ T-REx™-293 cells. The assay is described as follows: Respiration of digitonin-permeabilized transduced or transfected cells. The assay is classed as cell-based, human. To be noted: 10 µM n-propyl gallate.

Consider `CCCOC(=O)c1cc(O)c(O)c(O)c1` [n-propyl gallate], for which, in the assay with Flp-In™ T-REx™-293 cells [1] (100 µM propyl gallate added after cyanide), the “inhibition of cyanide-resistant succinate oxidation” value was “fully inhibited”. In addition, in the assay with Flp-In™ T-REx™-293 cells [1] (propyl gallate in the absence of cyanide), the “inhibition of oxygen uptake” value stood at 5%. In addition, in the assay with Drosophila mitochondria, the “effect of AOX inhibitors on respiration” value is on record as “only a small effect” and the “sensitivity of residual cyanide-insensitive respiratory activity to AOX inhibitors” value was “sensitive”. Further, the “inhibition of residual respiration in the presence of cyanide” value in the assay on Flp-In™ T-REx™-293 cells [2] (pWPI-AOX-transduced cells) is given as “completely inhibited”. Besides, the “inhibition of respiration in the presence of cyanide” value in the assay on Flp-In™ T-REx™-293 cells [2] (pcDNA5-AOX-transfected cells) is given as “almost completely inhibited”.
